The record followed here is PMC6321601 (Molecules, 2018).

The test system of assay [1] is HepG-2 human hepatocellular carcinoma cells. Put plainly: MTT assay, proliferation of HepG-2 cells. Type of assay: cell-based. Conditions: mean of three independent experiments. On the procedure:
(§1) HepG-2 human hepatocellular carcinoma cells and L-O2 human normal liver cells were maintained in DMEM culture medium supplemented with 10% FBS at 37 °C under a humidified atmosphere with 5% CO2.
(§2) HepG-2 and L-O2 cells in logarithmic growth phase were seeded into a 96-well plate at 5 × 10^3/well/200 µL. After 12 h, compounds at different concentrations were added and incubated for 72 h at 37 °C, 5% CO2. Then, 20 µL MTT (5 mg/mL) was added into each well and incubated for 4 h. The supernatant was discarded, and the precipitate was dissolved with DMSO. The absorbance of the optical density (OD) at 570 nm was detected using a microplate reader and the IC50 was calculated with GraphPad Prism 5.
(In general: Tetrazolium dyes change colour on reduction, which living cells bring about.)

In assay [2] the test system is L-O2 human normal liver cells. Briefly: MTT assay, toxicity against L-O2 normal cells. Type of assay: cell-based. Conditions: 72 h incubation, mean of three independent experiments. On the procedure:
as §1, §2

The mark [3] stands for this setting: Homo sapiens, HepG2, 72 h incubation.

In general, IC50 refers to the point on the concentration scale where inhibition reaches its midpoint. A high value points to weaker potency. Turning to `CC(=O)OC(C)(C)/C=C/C(=O)[C@](C)(O)C1[C@H](OC(=O)CCC(=O)OCCCCCCOc2no[n+]([O-])c2S(=O)(=O)c2ccccc2)C[C@@]2(C)C3CC=C4C(CC(O)C(=O)C4(C)C)[C@]3(C)C(=O)C[C@]12C` (stereo partly drawn) [Compound 10e, 4-((6-((4-(((9R,13R,14S,16R)-17-((R,E)-6-Acetoxy-2-hydroxy-6-methyl-3-oxohept-4-en-2-yl)-2-hydroxy-4,4,9,13,14-pentamethyl-3,11-dioxo-2,3,4,7,8,9,10,11,12,13,14,15,16,17-tetradecahydro-1H-cyclopenta[a]phenanthren-16-yl)oxy)-4-oxobutanoyl)oxy)hexyl)oxy)-3-(phenylsulfonyl)-1,2,5-oxadiazole 2-oxide], the 50% inhibitory concentration (IC50) was 1.15 ± 0.24 µM in assay [1] (setting [3]) and 3.21 ± 0.09 µM in assay [2] (Homo sapiens).
For `CC(=O)OC(C)(C)/C=C/C(=O)[C@](C)(O)C1[C@H](OC(=O)c2ccc(Br)cc2)C[C@@]2(C)C3CC=C4C(C[C@H](O)C(=O)C4(C)C)[C@]3(C)C(=O)C[C@]12C` (stereo partly drawn) [Compound 3k, (2S,9R,13R,14S,16R)-17-((R,E)-6-Acetoxy-2-hydroxy-6-methyl-3-oxohept-4-en-2-yl)-2-hydroxy-4,4,9,13,14-pentamethyl-3,11-dioxo-2,3,4,7,8,9,10,11,12,13,14,15,16,17-tetradecahydro-1H-cyclopenta[a]phenanthren-16-yl 4-bromobenzoate] the same measures were 2.99 ± 2.06 µM and 1.93 ± 0.32 µM.
As for “cucurbitacin B [Compound 1, reference compound]”, the IC50 in assay [1] (72 h incubation) amounted to 0.06 ± 0.02 µM; in assay [2], 0.019 ± 0.003 µM.
Regarding `CC(=O)OC(C)(C)/C=C/C(=O)[C@](C)(O)C1[C@H](OC(=O)CCC(=O)NCCCOc2no[n+]([O-])c2S(=O)(=O)c2ccccc2)C[C@@]2(C)C3CC=C4C(CC(O)C(=O)C4(C)C)[C@]3(C)C(=O)C[C@]12C` (stereo partly drawn) [Compound 9b, 4-(3-(4-(((9R,13R,14S,16R)-17-((R,E)-6-Acetoxy-2-hydroxy-6-methyl-3-oxohept-4-en-2-yl)-2-hydroxy-4,4,9,13,14-pentamethyl-3,11-dioxo-2,3,4,7,8,9,10,11,12,13,14,15,16,17-tetradecahydro-1H-cyclopenta[a]phenanthren-16-yl)oxy)-4-oxobutanamido)propoxy)-3-(phenylsulfonyl)-1,2,5-oxadiazole 2-oxide], the IC50 in assay [1] (setting [3]) was found to be 0.53 ± 0.01 µM; in assay [2] (Homo sapiens), 0.8 ± 0.4 µM.
Turning to `CC(=O)OC(C)(C)/C=C/C(=O)[C@](C)(O)C1[C@H](OC(=O)/C=C/c2ccc(C#N)cc2)C[C@@]2(C)C3CC=C4C(C[C@H](O)C(=O)C4(C)C)[C@]3(C)C(=O)C[C@]12C` (stereo partly drawn) [Compound 3p, (2S,9R,13R,14S,16R)-17-((R,E)-6-Acetoxy-2-hydroxy-6-methyl-3-oxohept-4-en-2-yl)-2-hydroxy-4,4,9,13,14-pentamethyl-3,11-dioxo-2,3,4,7,8,9,10,11,12,13,14,15,16,17-tetradecahydro-1H-cyclopenta[a]phenanthren-16-yl (E)-3-(4-cyanophenyl)acrylate], the IC50 in assay [1] (setting [3]) was 2.34 ± 0.91 µM; in assay [2] (Homo sapiens) it was 1.47 ± 0.36 µM.
`CC(=O)OC(C)(C)/C=C/C(=O)[C@](C)(O)C1[C@H](OC(=O)C=Cc2ccccc2)C[C@@]2(C)C3CC=C4C(C[C@H](O)C(=O)C4(C)C)[C@]3(C)C(=O)C[C@]12C` (stereo partly drawn) [Compound 3o, (2S,9R,13R,14S,16R)-17-((R,E)-6-Acetoxy-2-hydroxy-6-methyl-3-oxohept-4-en-2-yl)-2-hydroxy-4,4,9,13,14-pentamethyl-3,11-dioxo-2,3,4,7,8,9,10,11,12,13,14,15,16,17-tetradecahydro-1H-cyclopenta[a]phenanthren-16-yl cinnamate]: the IC50 in assay [1] (setting [3]) worked out at 3.31 ± 0.24 µM; in assay [2] (Homo sapiens) it was 9.59 ± 2.38 µM.
In the case of `CC(=O)OC(C)(C)/C=C/C(=O)[C@](C)(O)C1[C@H](OC(=O)C2CCCC2)C[C@@]2(C)C3CC=C4C(C[C@H](O)C(=O)C4(C)C)[C@]3(C)C(=O)C[C@]12C` (stereo partly drawn) [Compound 3c, (2S,9R,13R,14S,16R)-17-((R,E)-6-Acetoxy-2-hydroxy-6-methyl-3-oxohept-4-en-2-yl)-2-hydroxy-4,4,9,13,14-pentamethyl-3,11-dioxo-2,3,4,7,8,9,10,11,12,13,14,15,16,17-tetradecahydro-1H-cyclopenta[a]phenanthren-16-yl cyclopentanecarboxylate], the IC50 in assay [1] (setting [3]) turned out to be 2.45 ± 1.75 µM; in assay [2] (Homo sapiens) it was 2.37 ± 0.09 µM.
As to `CC(=O)OC(C)(C)/C=C/C(=O)[C@](C)(O)C1[C@H](OC(=O)CCC(=O)N2CCN(CCOc3no[n+]([O-])c3S(=O)(=O)c3ccccc3)CC2)C[C@@]2(C)C3CC=C4C(CC(O)C(=O)C4(C)C)[C@]3(C)C(=O)C[C@]12C` (stereo partly drawn) [Compound 9c, 4-(2-(4-(4-(((9R,13R,14S,16R)-17-((R,E)-6-Acetoxy-2-hydroxy-6-methyl-3-oxohept-4-en-2-yl)-2-hydroxy-4,4,9,13,14-pentamethyl-3,11-dioxo-2,3,4,7,8,9,10,11,12,13,14,15,16,17-tetradecahydro-1H-cyclopenta[a]phenanthren-16-yl)oxy)-4-oxobutanoyl)piperazin-1-yl)ethoxy)-3-(phenylsulfonyl)-1,2,5-oxadiazole 2-oxide], the IC50 in assay [1] (setting [3]) came out at 0.92 ± 0.16 µM; in assay [2] (Homo sapiens) it was 2.61 ± 1.77 µM.
Take `CC(=O)OC(C)(C)/C=C/C(=O)[C@](C)(O)C1[C@H](OC(=O)CCCCNC(=O)OC(C)(C)C)C[C@@]2(C)C3CC=C4C(C[C@H](O)C(=O)C4(C)C)[C@]3(C)C(=O)C[C@]12C` (stereo partly drawn) [Compound 3d, (2S,9R,13R,14S,16R)-17-((R,E)-6-Acetoxy-2-hydroxy-6-methyl-3-oxohept-4-en-2-yl)-2-hydroxy-4,4,9,13,14-pentamethyl-3,11-dioxo-2,3,4,7,8,9,10,11,12,13,14,15,16,17-tetradecahydro-1H-cyclopenta[a]phenanthren-16-yl 5-((tert-butoxycarbonyl)amino)pentanoate]: the IC50 in assay [1] (setting [3]) amounted to 4.89 ± 0.92 µM; in assay [2] (Homo sapiens) it was 8.01 ± 0.47 µM.
For the compound `CC(=O)OC(C)(C)/C=C/C(=O)[C@](C)(O)C1[C@H](OC(=O)CCC(=O)OCCCCCCCCCOc2no[n+]([O-])c2S(=O)(=O)c2ccccc2)C[C@@]2(C)C3CC=C4C(CC(O)C(=O)C4(C)C)[C@]3(C)C(=O)C[C@]12C` (stereo partly drawn) [Compound 10h, 4-((9-((4-(((9R,13R,14S,16R)-17-((R,E)-6-Acetoxy-2-hydroxy-6-methyl-3-oxohept-4-en-2-yl)-2-hydroxy-4,4,9,13,14-pentamethyl-3,11-dioxo-2,3,4,7,8,9,10,11,12,13,14,15,16,17-tetradecahydro-1H-cyclopenta[a]phenanthren-16-yl)oxy)-4-oxobutanoyl)oxy)nonyl)oxy)-3-(phenylsulfonyl)-1,2,5-oxadiazole 2-oxide], the IC50 in assay [1] (setting [3]) is 1.15 ± 0.24 µM; in assay [2] (Homo sapiens) it was 1.17 ± 0.08 µM.
Turning to `CC(=O)OC(C)(C)C=CC(=O)C(C)(O)C1C(OC(=O)CCC(=O)NCCOc2no[n+]([O-])c2S(=O)(=O)c2ccccc2)CC2(C)C3CC=C4C(CC(O)C(=O)C4(C)C)C3(C)C(=O)CC12C` [Compound 9a, 3-((l1-oxidanyl)(oxo)(phenyl)-l5-sulfanyl)-4-(2-(4-(((9R,13R,14S,16R)-17-((R,E)-6-acetoxy-2-hydroxy-6-methyl-3-oxohept-4-en-2-yl)-2-Hydroxy-4,4,9,13,14-pentamethyl-3,11-dioxo-2,3,4,7,8,9,10,11,12,13,14,15,16,17-tetradecahydro-1H-cyclopenta[a]phenanthren-16-yl)oxy)-4-oxobutanamido)ethoxy)-1,2,5-oxadiazole 2-oxide], the values for the IC50 in assay [1] (setting [3]) and in assay [2] (Homo sapiens) were 0.46 ± 0.14 µM and 0.69 ± 0.43 µM, respectively.
